{
  "source": "paper PMC12785453",
  "about": "“Oral Fluid Concentrations and Pharmacological Effects of Clephedrone and Methylone in Humans” (International Journal of Molecular Sciences, 2025)",
  "test_system": "healthy volunteers",
  "assay": "Physiological effects (SBP, DBP, HR, T), naturalistic observational clephedrone study",
  "assay_type": "in vivo, humans",
  "description": "The study evaluating the acute effects of clephedrone was designed as a non-controlled, prospective, observational, and naturalistic study. The procedures and evaluations included in this study have been described in previous studies evaluating other synthetic cathinones (mephedrone, methylone, alpha-PVP, NEP, HEXEN), phenethylamines (2C-B and 2C-E), or synthetic cannabinoids (JWH-122, JWH-210, UR-144).\nThis study consisted of one experimental session in which participants (N = 8; 6 women, 2 men) selected their oral dose of clephedrone based on their drug use experience and preferences. According to their dose selection, 3 women and 1 man ingested 100 mg of clephedrone, while the remaining 3 women and 1 man opted for a higher dose of 150 mg. […] Participants were recruited by word of mouth by the harm reduction organization Energy Control in Barcelona (Associació Benestar i Desenvolupament, ABD).\nParticipants of the naturalistic clephedrone study were summoned at 15:00 h at the private club where sessions were carried out. The club remained closed to the public until the end of the session, approximately at 21:00 h. As a naturalistic study, participants were left free to talk, read, play games, or listen to music in the time between study evaluations. To avoid possible influences between participants, they were asked to refrain from talking about the effects of the self-administered substance. The experimental sessions of the controlled pilot trial were carried out at the Clinical Research Unit (UPIC) of the Germans Trias i Pujol hospital, where participants were summoned at 7:45 a.m. after fasting overnight and remained there for approximately 11 h.\nIn the naturalistic clephedrone study, non-invasive systolic blood pressure (SBP), diastolic blood pressure (DBP), and heart rate (HR) were assessed, while subjects remained seated with an automatic Omron monitor (Omron, Healthcare, Kyoto, Japan) at baseline, 0.50, 1, 1.5, 2, 3, 4 and 5 h (h) after self-administration. Forehead cutaneous temperature was determined at the same time points using a cutaneous infrared thermometer.\nFor statistical analysis, values of physiological (SBP, DBP, HR, and T) and subjective effects (VAS, ARCI, and VESSPA-SSE) were baseline–adjusted. Maximum effects (Emax) and the time needed to reach maximum effects (Tmax) were determined, and the area under the curve up to 5 h (AUC0–5h) for clephedrone and up to 6 h (AUC0–6h) for methylone was calculated using the trapezoidal rule. Emax and AUC values are presented as mean ± standard deviation, whereas Tmax is presented in median (range).\nTo find possible significant changes through the time course compared to baseline, a Dunnett multiple comparison test was carried out to compare each time point with baseline in both drug conditions. For clephedrone the comparisons were 0–0.5 h, 0–1 h, 0–1.5 h, 0–2 h, 0–3 h, 0–4 h and 0–5 h, and for methylone this analysis included 0–0.25 h, 0–0.5 h, 0–0.75 h, 0–1 h, 0–1.5 h, 0–2 h, 0–3 h, 0–4 h and 0–6 h. Given their different study designs, no comparative analysis between the time courses of both synthetic cathinones was conducted.",
  "key": {"[1]": {"conditions": "100 or 150 mg oral, n=8, listed as clephedrone"}, "[2]": {"conditions": "AUC0–5h, 100 or 150 mg oral, n=8"}},
  "data": [
    {"smiles": "CNC(C)C(=O)c1ccc(Cl)cc1", "note": "(stereo not drawn) [Clephedrone, 4-chloromethcathinone]", "values": [
      {"measurement": "Onset of cardiovascular effects after self-administration", "setting": "100 or 150 mg oral", "result": 2, "unit": "h"},
      {"measurement": "Tmax of maximum effects on SBP, DBP and HR", "setting": "100 or 150 mg oral", "result": "2.5 to 3.0", "unit": "h"},
      {"measurement": "DBP Emax", "setting": "100 or 150 mg oral, n=8", "result": "13.63 ± 11.74", "unit": "mmHg"},
      {"measurement": "HR Emax", "setting": "100 or 150 mg oral, n=8", "result": "17.19 ± 25.17", "unit": "bpm"},
      {"measurement": "SBP Emax", "setting": "100 or 150 mg oral, n=8", "result": "16.81 ± 13.11", "unit": "mmHg"},
      {"measurement": "DBP Emax", "setting": "[1]", "result": 13.6, "unit": "mmHg"},
      {"measurement": "HR Emax", "setting": "[1]", "result": 17.19, "unit": "bpm"},
      {"measurement": "HR Tmax", "setting": "[1]", "result": 3, "unit": "h"},
      {"measurement": "SBP Emax", "setting": "[1]", "result": 16.81, "unit": "mmHg"},
      {"measurement": "DBP AUC0-5/6 h", "setting": "[2]", "result": "32.64 ± 22.06", "unit": "mmHg·h"},
      {"measurement": "HR AUC0-5/6 h", "setting": "[2]", "result": "37.20 ± 40.72", "unit": "bpm·h"},
      {"measurement": "SBP AUC0-5/6 h", "setting": "[2]", "result": "41.77 ± 13.86", "unit": "mmHg·h"},
      {"measurement": "T AUC0-5/6 h", "setting": "AUC0–5h, forehead cutaneous temperature, 100 or 150 mg oral, n=8", "result": "1.25 ± 1.05", "unit": "°C·h"},
      {"measurement": "Tolerability, serious adverse events", "setting": "all administered doses (100 or 150 mg oral)", "result": "well tolerated"},
      {"measurement": "T Emax", "setting": "forehead cutaneous temperature, 100 or 150 mg oral, n=8", "result": "0.63 ± 0.35", "unit": "°C"}
    ]}
  ]
}
